Experimental data reported in PMC6522510 (Nature Communications, 2019).
Where two headings read alike, the source gives them in different places.

How the values were obtained:
Set-up in all cases: species or system AML cell lines (8); Primary HTS, single concentration about 10 uM, Cell Titer Glo viability; log10 luminescence, per cent inhibition relative to cycloheximide control
Conditions in all cases: 72 h, inhibitor
[1] = tested on: CHRF288-11
[2] = tested on: CMK
[3] = tested on: CMS
[4] = tested on: M07e
[5] = tested on: ML-2
[6] = tested on: MOLM-13
[7] = tested on: MV4-11
[8] = tested on: U937
[9] = relative to cycloheximide control, log10 luminescence
[10] = relative to cycloheximide control, log10 luminescence, CHRF288-11 %inh, 10 µM
[11] = relative to cycloheximide control, log10 luminescence, CMK %inh, 10 µM
[12] = relative to cycloheximide control, log10 luminescence, CMS %inh, 10 µM
[13] = relative to cycloheximide control, log10 luminescence, M07e %inh, 10 µM
[14] = relative to cycloheximide control, log10 luminescence, ML-2 %inh, 10 µM
[15] = relative to cycloheximide control, log10 luminescence, MOLM-13 %inh, 10 µM
[16] = relative to cycloheximide control, log10 luminescence, MV4-11 %inh, 10 µM
[17] = relative to cycloheximide control, log10 luminescence, U937 %inh, 10 µM

Compound	CHRF288-11 %inh [1, 9] [%]	CMK %inh [2, 9] [%]	CMS %inh [3, 9] [%]	M07e %inh [4, 9] [%]	ML-2 %inh [5, 9] [%]	MOLM-13 %inh [6, 9] [%]	MV4-11 %inh [7, 9] [%]	U937 %inh [8, 9] [%]	further results
O=C1Nc2ccc(I)cc2C1=Cc1cc(Br)c(O)c(Br)c1 [SJ000287883-4, GW 5074 | GW5074 | RAF1 KINASE INHIBITOR I | U7401/61/2 | GW5074]	7.111	3.747	1.257	1.287	-0.3991	3.135	1.335	2.224	–
COc1cc2c(cc1O)CC[C@@H]1[C@@H]2CC[C@]2(C)[C@@H](O)CC[C@@H]12 [SJ000288002-4, 2-METHOXYESTRADIOL | 2-METHOXYESTRADIOL | PANZEM | PULMOLAR | 2-ME | 2-MEOE2 | 2ME2 | NSC-659853 | | 2-METHOXYESTRADIOL | 2-ME | 2-MEOE2 | 2ME2 | NSC-659853 | | 2-METHOXYESTRADIOL (2-MEOE2)]	–	–	–	–	–	–	–	–	CHRF288-11 %inh [1, 10]: 60.77%; CMK %inh [2, 11]: 133.7%; CMS %inh [3, 12]: 122.6%; M07e %inh [4, 13]: 111%; ML-2 %inh [5, 14]: 66.58%; MOLM-13 %inh [6, 15]: 91.74%; MV4-11 %inh [7, 16]: 99.75%; U937 %inh [8, 17]: 95.83%
COc1cc2c(cc1O)CC[C@@H]1[C@@H]2CC[C@]2(C)[C@@H](O)CC[C@@H]12 [SJ000288002-5, 2-METHOXYESTRADIOL | 2-METHOXYESTRADIOL | PANZEM | PULMOLAR | 2-ME | 2-MEOE2 | 2ME2 | NSC-659853 | | 2-METHOXYESTRADIOL | 2-ME | 2-MEOE2 | 2ME2 | NSC-659853 | | 2-METHOXYESTRADIOL (2-MEOE2)]	–	–	–	–	–	–	–	–	CHRF288-11 %inh [1, 10]: 61.44%; CMK %inh [2, 11]: 118%; CMS %inh [3, 12]: 96.86%; M07e %inh [4, 13]: 94.34%; ML-2 %inh [5, 14]: 56.77%; MOLM-13 %inh [6, 15]: 80.44%; MV4-11 %inh [7, 16]: 76.13%; U937 %inh [8, 17]: 80.21%
Cc1ccc(=O)n(-c2ccccc2)c1 [SJ000288087-4, PIRFENIDONE]	10.42	-5.144	4.387	-1.785	-0.2811	2.774	8.387	-2.099	–
CCCCCCCCCCCCCCSCC(=O)O [SJ000288209-4, TETRADECYLTHIOACETIC ACID]	-0.5942	-1.764	-0.2083	1.198	-0.6377	-1.133	-0.2387	-2.154	–
Clc1cnc(Oc2ccc(Oc3ncc(Cl)cc3Cl)cc2)c(Cl)c1 [SJ000288225-4, TCPOBOP]	4.243	-2.209	-0.7867	1.992	1.606	-2.278	0.7208	-1.704	–
C/C(=C\c1ccc(C(=O)O)cc1)c1ccc2c(c1)C(C)(C)CCC2(C)C [SJ000288227-4, TTNPB | TTNPB (AROTINOID ACID)]	0.3991	5.715	11.71	3.996	2.308	8.388	20.2	8.124	–
O=C1Nc2ccccc2/C1=C\c1c(Cl)[nH]c2ccccc12 [SJ000312180-2, CDK1 INHIBITOR]	68.22	109.3	93.89	105.1	57.06	82.19	76.6	78.83	–
COCC1=C(C(=O)O)N2C(=O)[C@@H](NC(=O)/C(=N\OC)c3csc(N)n3)[C@H]2SC1 [SJ000312312-2, CEFPODOXIME, FREE ACID| R-3763| U-76253 | CEFPODOXIME, FREE ACID| R-3763| U-76253 | (6R,7R)-7-((Z)-2-(2-AMINOTHIAZOL-4-YL)-2-(METHOXYIMINO)ACETAMIDO)-3-(METHOXYMETHYL)-8-OXO-5-THIA-1-AZABICYCLO[4.2.0]OCT-2-ENE-2-CARBOXYLIC ACID]	0.005285	34.96	-1.332	-1.66	-0.4312	-1.275	-2.052	-1.004	–
C[C@]12CCC(=O)C=C1[C@@H]1C[C@@H]1[C@H]1[C@@H]3[C@@H]4C[C@@H]4[C@@]4(CCC(=O)O4)[C@@]3(C)CC[C@@H]12 [SJ000312356-2, DROSPIRENONE]	6.784	38.69	0.9318	3.09	-0.6244	1.327	3.583	3.696	–
COc1ccc2nc3cc(Cl)ccc3c(Nc3cc(CN4CCCC4)c(O)c(CN4CCCC4)c3)c2n1 [SJ000518979-1, PYRONARIDINE PHOSPHATE]	68.68	87.35	102.4	115	59.06	93.43	74.19	76.7	–
Clc1ccc2c(N3CCN(CCCN4CCN(c5ccnc6cc(Cl)ccc56)CC4)CC3)ccnc2c1 [SJ000518980-1, PIPERAQUINE PHOSPHATE]	-8.556	-2.506	3.926	-0.3802	-2.97	-0.1677	0.4168	-2.593	–
CO[C@H]1C[C@@H]2CC[C@@H](C)[C@@](O)(O2)C(=O)C(=O)N2CCCC[C@H]2C(=O)O[C@H]([C@H](C)C[C@@H]2CC[C@@H](OC(=O)C(C)(CO)CO)[C@H](OC)C2)CC(=O)[C@H](C)/C=C(\C)[C@@H](O)[C@@H](OC)C(=O)[C@H](C)C[C@H](C)/C=C/C=C/C=C/1C [SJ000518987-1, TEMSIROLIMUS | CCI-779 | NSC-683864 | TORISEL | TEMSIROLIMUS (CCI-779, NSC 683864)]	29.37	14.34	21.7	19.45	9.499	6.723	11.74	25.81	–
Oc1ncc(N(CCCl)CCCl)c(O)n1 [SJ000518988-1, URACIL MUSTARD]	–	–	–	–	–	–	–	–	CHRF288-11 %inh ([1]; 10 µM): 3.507%; CMK %inh ([2]; 10 µM): -4.305%; CMS %inh ([3]; 10 µM): 1.52%; M07e %inh ([4]; 10 µM): 2.028%; ML-2 %inh ([5]; 10 µM): 1.705%; MOLM-13 %inh ([6]; 10 µM): -0.3938%; MV4-11 %inh ([7]; 10 µM): -1.171%; U937 %inh ([8]; 10 µM): -0.2311%
CO[C@H]1O[C@@H]2O[C@@]3(C)CC[C@H]4[C@H](C)CC[C@@H]([C@H]1C)[C@@]24OO3 [SJ000519015-1]	-0.3434	0.2838	7.594	0.2631	5.533	2.58	9.901	20.8	–
CC[C@H](C)[C@@H]1NC(=O)[C@H](Cc2ccc(O)cc2)NC(=O)[C@@H](N)CSSC[C@@H](C(=O)N2CCC[C@H]2C(=O)N[C@@H](CC(C)C)C(=O)NCC(N)=O)NC(=O)[C@H](CC(N)=O)NC(=O)[C@H](CCC(N)=O)NC1=O [SJ000519020-1, OXYTOCIN]	-2.465	-2.47	-0.7099	0.04623	-0.7579	-2.698	1.343	-1.829	–
CCCN(CCc1ccc(O)cc1)C(=O)[C@@H](C)c1cccc(C(=O)c2ccccc2)c1 [SJ000520373-2, NMDA298-1]	9.808	9.519	3.128	11.25	1.661	13.67	11.33	10.97	–
